Laboratory results as given in US11396522B2, “Bis-acetal-based substrates for imaging exo-glycosidase activity” (ALECTOS THERAPEUTICS INC., priority 2017, dated 2022).

Legend:
[1] = molecular target: T1, GBA2 (Homo sapiens, UniProt Q9HCG7); assay: In vitro kinetic assay with GBA2; format: biochemical; settings: GBA enzymes at 50 nM
T1 sequence (Q9HCG7 1-927): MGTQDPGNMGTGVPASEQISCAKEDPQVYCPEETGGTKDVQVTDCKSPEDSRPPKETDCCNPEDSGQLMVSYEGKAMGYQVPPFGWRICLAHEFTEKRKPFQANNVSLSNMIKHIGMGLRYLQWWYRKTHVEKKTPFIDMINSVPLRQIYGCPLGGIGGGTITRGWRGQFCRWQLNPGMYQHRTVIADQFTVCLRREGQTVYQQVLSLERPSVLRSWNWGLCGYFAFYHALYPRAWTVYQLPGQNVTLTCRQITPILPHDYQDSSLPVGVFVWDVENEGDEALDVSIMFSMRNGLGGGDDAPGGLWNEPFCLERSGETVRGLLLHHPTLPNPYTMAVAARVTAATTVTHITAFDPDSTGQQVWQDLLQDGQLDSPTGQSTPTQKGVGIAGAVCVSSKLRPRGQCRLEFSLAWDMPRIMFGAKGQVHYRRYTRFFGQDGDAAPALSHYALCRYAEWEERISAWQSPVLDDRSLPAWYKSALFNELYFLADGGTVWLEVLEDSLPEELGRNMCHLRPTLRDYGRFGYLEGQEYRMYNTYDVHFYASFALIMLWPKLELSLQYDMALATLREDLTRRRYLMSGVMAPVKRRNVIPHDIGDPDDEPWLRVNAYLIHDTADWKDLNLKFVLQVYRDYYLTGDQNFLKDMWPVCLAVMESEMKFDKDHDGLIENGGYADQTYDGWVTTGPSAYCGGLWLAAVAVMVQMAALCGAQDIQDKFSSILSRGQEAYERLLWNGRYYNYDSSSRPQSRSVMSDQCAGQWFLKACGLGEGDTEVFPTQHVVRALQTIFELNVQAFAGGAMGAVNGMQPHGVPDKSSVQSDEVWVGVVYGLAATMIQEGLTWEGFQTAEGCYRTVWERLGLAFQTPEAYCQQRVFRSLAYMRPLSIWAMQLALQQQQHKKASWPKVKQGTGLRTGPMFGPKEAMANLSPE

[2] = molecular target: T2, GBA3 (Homo sapiens, UniProt Q9H227); assay: In vitro kinetic assay with GBA3; format: biochemical; settings: GBA enzymes at 50 nM
T2 construct: purchased R&D Systems
T2 sequence (Q9H227 1-469): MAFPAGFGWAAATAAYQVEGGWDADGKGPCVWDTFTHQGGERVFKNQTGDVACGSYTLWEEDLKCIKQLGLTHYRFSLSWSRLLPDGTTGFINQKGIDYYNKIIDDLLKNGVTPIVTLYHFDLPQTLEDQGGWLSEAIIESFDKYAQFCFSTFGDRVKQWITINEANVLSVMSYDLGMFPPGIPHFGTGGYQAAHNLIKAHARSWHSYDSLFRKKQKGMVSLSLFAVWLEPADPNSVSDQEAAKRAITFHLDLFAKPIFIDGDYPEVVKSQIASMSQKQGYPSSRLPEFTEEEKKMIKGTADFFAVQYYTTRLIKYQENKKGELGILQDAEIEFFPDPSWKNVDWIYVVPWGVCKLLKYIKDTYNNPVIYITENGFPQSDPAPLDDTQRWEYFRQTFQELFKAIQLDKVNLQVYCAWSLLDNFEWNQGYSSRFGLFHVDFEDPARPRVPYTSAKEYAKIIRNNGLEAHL
Description: (§1) For some experiments, fluorescence kinetic assays were performed using a Varian Cary Eclipse Spectrophotometer set for 335/493 nm excitation/emission wavelengths. Slits were set at 10 nm and the detector was set on Medium voltage. Enzymatic reactions with human OGA were carried out in PBS at 37° C. and were started by addition of hOGA (WT, Full-length, expressed in E. coli. as previously described) in a total volume of 160 μL (Starna sub-micro Fluorometer cuvette). For measurements of rates using different concentrations of substrates, a hOGA concentration of 100 nM was used. For hOGA titration, 25 μM of Glyco-BABS were added to various concentration of hOGA. […] EDANS standard curve was established using endpoint fluorescence measurements of serial dilutions of EDANS in the relevant buffer using the same instrument parameters. Inner-Filter effect measurements were carried out in cuvette by measuring fluorescence of several concentrations of EDANS in presence of various concentrations of GlcNAc-BABS. Kinetics with Glc-BABS and GBA enzymes (GBA1 and GBA3 purchased from R&D Systems), kinetics with GALC (R&D systems) and Gal-BABS, pH stability, quenching efficiency, some inner-filter effect experiments and lysates experiments were carried out using a Molecular Devices SpectraMax i3× plate reader. […]

[3] = pH stability of Glyco-BABS; format: physicochemical; settings: 5 μM, up to 72 h, pH 2 to 10
[4] = molecular target: T3, GBA1 (Homo sapiens, UniProt P04062); assay: In vitro kinetic assay with GBA1; format: biochemical; parameters: purchased R&D Systems; settings: GBA enzymes at 50 nM
T3 sequence (P04062 40-536): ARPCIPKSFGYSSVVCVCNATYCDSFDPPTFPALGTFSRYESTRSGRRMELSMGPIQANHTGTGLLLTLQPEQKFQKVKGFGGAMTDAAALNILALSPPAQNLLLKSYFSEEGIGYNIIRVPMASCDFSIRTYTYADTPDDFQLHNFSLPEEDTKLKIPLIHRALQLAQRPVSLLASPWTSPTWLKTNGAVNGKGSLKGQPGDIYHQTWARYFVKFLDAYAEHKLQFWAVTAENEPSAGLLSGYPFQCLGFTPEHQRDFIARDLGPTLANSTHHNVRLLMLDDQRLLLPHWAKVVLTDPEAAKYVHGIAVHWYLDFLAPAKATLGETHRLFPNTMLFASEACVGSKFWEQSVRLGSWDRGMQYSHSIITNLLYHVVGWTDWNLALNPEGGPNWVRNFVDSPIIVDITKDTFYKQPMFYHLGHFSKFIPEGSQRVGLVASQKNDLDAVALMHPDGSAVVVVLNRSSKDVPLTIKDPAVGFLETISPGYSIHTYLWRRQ
Description: as §1

turnover by GBA2 [1]: not turned over
turnover by GBA3 [2]: not turned over
pH stability (increase of fluorescence) [3]: no significant increase of fluorescence
turnover by GBA1 [4]: not turned over
SMILES: CN(C)c1ccc(/N=N/c2ccc(C(=O)NCc3cn(CCOCCO[C@H](O[C@@H]4O[C@H](CO)[C@@H](O)[C@H](O)[C@H]4O)[C@@](C)(O)C(=O)NCCNc4cccc5c(S(=O)(=O)O)cccc45)nn3)cc2)cc1 [Compound 6, 5-((2-((2R,3R)-3-(2-(2-(4-((4-((E)-(4-(dimethylamino)phenyl)diazenyl)benzamido)methyl)-1H-1,2,3-triazol-1-yl)ethoxy)ethoxy)-2-hydroxy-2-methyl-3-(((2S,3R,4S,5S,6R)-3,4,5-trihydroxy-6-(hydroxymethyl)tetrahydro-2H-pyran-2-yl)oxy)propanamido)ethyl)amino)naphthalene-1-sulfonic Acid]
